From patent US9079893B2, “Ureido-pyrazole derivatives for use in the treatment of respiratory syncitial virus (RSV) infection” (Respivert, Ltd., priority 2010, dated 2015)
Like-named read-outs stand apart in the source and are kept apart here.

Columns and labels:
[1] = tested on: RSV F-protein expression in NHBEC; assay: RSV F-protein expression in NHBEC infected with RSV A2 (in vitro RSV virus load); type: cell-based, respiratory syncitial virus (RSV A2); conditions: for NHBEC E-max (%): test conc μg/mL: 0.0016-0.2 (Examples 1, 59), 0.04-0.2 (fluticasone propionate), 10 (ribavirin); for IC50 / inhibition at 0.04 µg/mL: human respiratory syncytial virus, 96 h; for inhibition at 0.04 µg/mL: read-out: % inhibition (at 0.04 μg/mL)
Description: (§1) Normal human bronchial epithelial cells (NHBEC) grown in 96 well plates, were infected at a multiplicity of infection (MOI) of 0.001 with RSV A2 (Strain A2, HPA, Salisbury, UK;) in LHC8 Media: RPMI-1640 (50:50) containing 15 mM magnesium chloride, and incubated for 1 hr at 37° C. to promote adsorption. The cells were then washed with PBS to remove non-infected virus particle and incubated for 4 days in fresh media. As appropriate, cells were pre-incubated with the test compound or DMSO for 2 hr, and then added again after wash with PBS as shown above.
(§2) The cells were fixed with 4% formaldehyde in PBS solution for 20 min, washed with washing buffer: PBS including 0.5% BSA and 0.05% Tween-20) (WB) and incubated with blocking solution (5% condensed milk in PBS) for 1 hr. Cells were then washed with WB and incubated for 1 hr at RT with anti-RSV (2F7) F-fusion protein antibody (mouse monoclonal) (lot 798760, Cat. No. ab43812, Abcam). After washing, cells were incubated with an HRP-conjugated secondary antibody (lot 00053170, Cat. No. P0447, Dako) and then TMB substrate (substrate reagent pack (lot 269472, Cat. No. DY999, R&D Systems, Inc.) was added.
(§3) The reaction was stopped by the addition of 2NH2SO4 (50 μL) and the resultant signal was determined colorimetrically (OD: 450 nm with a reference wavelength of 655 nm) in a microplate reader (Varioskan® Flash, ThermoFisher Scientific). Cells were then washed and a 2.5% crystal violet solution (lot 8656, Cat. No. PL7000, Pro-Lab Diagnostics) was applied for 30 mins. After washing with WB, 100 μL of 1% SDS was added to each well, and plates were shaken lightly on the shaker for 1 hr prior to reading the absorbance at 595 nm. The measured OD450-655 readings were corrected to the cell number by dividing the OD450-655 by the OD595 readings. The percentage inhibition for each well was calculated and the IC50 value was calculated from the concentration-response curve generated by the serial dilutions of compound.

[2] = tested on: RSV F-protein expression in CF-BEC; assay: RSV F-protein expression in CF-BEC (HBECs from patients with cystic fibrosis) infected with RSV; type: cell-based, respiratory syncitial virus (RSV A2); conditions: for CF-BEC E-max (%): test conc μg/mL: 0.0016-0.2 (Examples 1, 59), 0.04-0.2 (fluticasone propionate), 10 (ribavirin); for IC50: human respiratory syncytial virus, 96 h, read-out: CF-BEC IC50 (nM)
Description: as §1, §2, §3
(§4) HBECs obtained from patients with cystic fibrosis (CF-BEC) and Hep2 cells (human larynx epidermoid carcinoma cell line) were also used.

[3] = tested on: RSV F-protein expression in Hep2 cells; assay: RSV F-protein expression in Hep2 cells infected with RSV; type: cell-based, respiratory syncitial virus (RSV A2); conditions: for Hep2 E-max (%): Hep2 cells, test conc μg/mL: 0.0016-0.2 (Examples 1, 59), 0.04-0.2 (fluticasone propionate), 10 (ribavirin); for IC50: human respiratory syncytial virus, HEp-2, 96 h
Description: as §1, §2, §3, §4

[4] = tested on: human RSV A2; assay: RSV virus load in mouse lung; type: in vivo, Balb/c mice; conditions: for Lung virus load (TCID50/g lung tissue ×10^3), day 3: 3 days post RSV infection; for Lung virus load (TCID50/g lung tissue ×10^3), day 5: 5 days post RSV infection; for Lung virus load (TCID50/g lung tissue ×10^3), day 7: 7 days post RSV infection; for inhibition of lung viral load: Day 5 post-infection (peak of virus titre), versus vehicle-dosed animals; for augmentation of viral load at Day 9: Day 9, when virus had been eliminated in vehicle-treated mice
Description: Wild type, specific pathogen-free male Balb/c mice aged 8 weeks and weighing approximately 25 g were obtained from the Animal Resource Centre Pty. Ltd., Australia. On day zero, appropriate animal groups were anaesthetised with the inhalation anaesthetic methoxyfluorane and nasally inoculated with either virus diluent (low protein serum free VPSSM from Invitrogen) or 10^6 TCID50 units of human RSV A2 in a volume of 50 μL. […] Eleven to thirteen animals from each group were sacrificed on days 3, 5, 7 and 9 to enable lung viral load to be determined using a plaque assay (Table 5).

[5] = tested on: RSV Memphis 37; assay: RSV titre assay (CPE in Hep2) of air-liquid interface cultured primary nasal epithelial cells; type: cell-based, respiratory syncitial virus (RSV Memphis 37); conditions: primary 3D cultured nasal epithelial cells, RSV Memphis 37, log [TCID50], FIG. 2
Description: Primary nasal epithelial cells, cultured using an air-liquid interface, were purchased from Epithelix Sarl (Geneva, Switzerland). Fresh, warmed media (200 μL) containing either the test compound at the selected concentration or vehicle (DMSO; final concentration of 0.5%) was transferred to the apical chamber, and fresh, warmed media (700 μL) containing either the test compound at the selected concentration or vehicle (DMSO; final concentration of 0.5%) were transferred to the bottom chamber. After incubation for 2 hr, the media in upper well was removed carefully. The following day, fresh, warmed media (200 μL) containing either the test compound at the selected concentration or vehicle (DMSO; final concentration of 0.5%) was transferred to the apical chamber again, and after incubation for 2 hr, the media was removed. On the third day, cells were treated again for 2 hr, and the media was removed. […]
The virus titre was estimated by CPE assay in Hep2 cells as follows: Supernatant (20 μL) was collected and 10-fold serial dilutions were prepared in 5%-FBS DMEM. […] The resultant cytopathic effects (CPE) were assessed by visual inspection 3 days after infection. The amount of virus required to infect 50% of Hep2 cells was calculated for each treatment and is reported as log [TCID50] […]

[6] = tested on: RSV Memphis 37 induced IL-8 release; assay: RSV Memphis 37 induced IL-8 release in air-liquid interface cultured primary nasal epithelial cells; type: cell-based; conditions: primary 3D cultured nasal epithelial cells, RSV Memphis 37, FIG. 1
Description: Primary nasal epithelial cells, cultured using an air-liquid interface, were purchased from Epithelix Sarl (Geneva, Switzerland). Fresh, warmed media (200 μL) containing either the test compound at the selected concentration or vehicle (DMSO; final concentration of 0.5%) was transferred to the apical chamber, and fresh, warmed media (700 μL) containing either the test compound at the selected concentration or vehicle (DMSO; final concentration of 0.5%) were transferred to the bottom chamber. After incubation for 2 hr, the media in upper well was removed carefully. The following day, fresh, warmed media (200 μL) containing either the test compound at the selected concentration or vehicle (DMSO; final concentration of 0.5%) was transferred to the apical chamber again, and after incubation for 2 hr, the media was removed. On the third day, cells were treated again for 2 hr, and the media was removed.
The cells in the apical well were infected with 50 μL of RSV Memphis 37 virus (Meridian) 2 (producing an MOI of approximately 0.1 at the estimated cell number of 1×10^6/well) and incubated for 1 hr. The apical media was then removed by aspiration and the wells were washed twice with warmed PBS. The plate was incubated at 37° C. […]
IL-8 concentrations were determined using a Duoset ELISA development kit (R&D Systems, Minneapolis, Minn.; FIG. 1)

[7] = intra-tracheal 20 μL of 0.1 mg/mL, mean ± SEM

CCC(=O)O[C@]1(C(=O)SCF)[C@H](C)C[C@H]2[C@@H]3C[C@H](F)C4=CC(=O)C=C[C@]4(C)[C@@]3(F)[C@@H](O)C[C@@]21C [Fluticasone propionate, reference compound]
NHBEC E-max (%) [1]: −38%
CF-BEC E-max (%) [2]: 10%

NC(=O)c1ncn([C@@H]2O[C@H](CO)[C@@H](O)[C@H]2O)n1 [Ribavirin, reference compound]
NHBEC E-max (%) [1]: 78%
Hep2 E-max (%) [3]: 93%
IC50 ([3]; read-out: Hep2 IC50 (footnote a: μM)): 9 µM
CF-BEC E-max (%) [2]: 53%

COCC(=O)Nc1cc(COc2ccc(NC(=O)Nc3cc(C(C)(C)C)nn3-c3ccc(C)cc3)c3ccccc23)ccn1 [Example 1, N-(4-((4-(3-(3-tert-Butyl-1-p-tolyl-1H-pyrazol-5-yl)ureido)naphthalen-1-yloxy)methyl)pyridin-2-yl)-2-methoxy acetamide]
Lung virus load (TCID50/g lung tissue ×10^3), day 3 [4, 7]: 66 ± 18 TCID50/g lung tissue ×10^3
Lung virus load (TCID50/g lung tissue ×10^3), day 5 [4, 7]: 1,545 ± 918^ TCID50/g lung tissue ×10^3
Lung virus load (TCID50/g lung tissue ×10^3), day 7 [4, 7]: 7.1 ± 5.2 TCID50/g lung tissue ×10^3
inhibition of lung viral load [4]: 67%
augmentation of viral load at Day 9 [4]: did not augment viral load
inhibition on RSV viral load [5]: strong inhibition
inhibition on RSV-induced IL-8 production [6]: strong inhibition
NHBEC E-max (%) [1]: 51%
IC50 [1]: 40.8 nM
inhibition at 0.04 µg/mL [1]: 46.8%
IC50 ([1]; read-out: NHBEC IC50 (nM)): 41 nM
Hep2 E-max (%) [3]: 24%
CF-BEC E-max (%) [2]: 84%
IC50 [2]: 69 nM

CNC(=O)Nc1cc(Oc2ccc(NC(=O)Nc3cc(C(C)(C)C)nn3-c3ccc(C)cc3)c3ccccc23)ccn1 [Example 88]
inhibition at 0.04 µg/mL [1]: 71.7%

Cc1ccc(-n2nc(C(C)(C)C)cc2NC(=O)Nc2ccc(Oc3ccnc(NC(=O)N4CCCC4)c3)c3ccccc23)cc1 [Example 65, N-(4-(4-(3-(3-tert-Butyl-1-p-tolyl-1H-pyrazol-5-yl)ureido)naphthalen-1-yloxy)pyridin-2-yl)pyrrolidine-1-carboxamide]
inhibition at 0.04 µg/mL [1]: 56.5%

Cc1ccc(-n2nc(C(C)(C)C)cc2NC(=O)Nc2ccc(OCCc3ccnc(NC(N)=O)c3)c3ccccc23)cc1 [Example 40, 4-(2-(4-(3-(3-tert-Butyl-1-p-tolyl-1H-pyrazol-5-yl)ureido)naphthalen-1-yloxy)ethyl)-3-(pyridin-2-yl)urea]
IC50 [1]: 103 nM
inhibition at 0.04 µg/mL [1]: 24.9%

COCC(=O)Nc1cc(Oc2ccc(NC(=O)Nc3cc(C(C)(C)C)nn3-c3ccc(C)cc3)c3ccccc23)ccn1 [Example 59, N-(4-(4-(3-(3-tert-Butyl-1-p-tolyl-1H-pyrazol-5-yl)ureido)naphthalen-1-yloxy)pyridin-2-yl)-2-methoxyacetamide]
Lung virus load (TCID50/g lung tissue ×10^3), day 3 [4, 7]: 81 ±29 TCID50/g lung tissue ×10^3
Lung virus load (TCID50/g lung tissue ×10^3), day 5 [4, 7]: 448 ± 268 TCID50/g lung tissue ×10^3
Lung virus load (TCID50/g lung tissue ×10^3), day 7 [4, 7]: 2.4 ± 0.8 TCID50/g lung tissue ×10^3
Lung virus load (TCID50/g lung tissue ×10^3), day 9 ([4]; 9 days post RSV infection, intra-tracheal 20 μL of 0.1 mg/mL, mean ± SEM): 0.3 ± 0.1 TCID50/g lung tissue ×10^3
inhibition of lung viral load [4]: 90%
augmentation of viral load at Day 9 [4]: did not augment viral load
NHBEC E-max (%) [1]: 78%
inhibition at 0.04 µg/mL [1]: 67.5%
Hep2 E-max (%) [3]: 58%
IC50 ([3]; read-out: Hep2 IC50 (nM)): 0.289 µM
CF-BEC E-max (%) [2]: 87%
IC50 [2]: 58 nM
